Patent US20120165331A1, “Di/tri-aza-spiro-C9-C11alkanes” (priority 2010, published 2012)

Tests used:
human orexin 2 receptor = molecular target: T1, human orexin 2 receptor (Homo sapiens, UniProt O43614); test: Calcium accumulation in cells (FLIPR), antagonism of orexin A, human orexin 2 receptor; assay type: cell-based; details: for Ki: calcium accumulation, antagonism of orexin A, Cheng-Prusoff corrected, read-out: FLIPR hOx2R Ki; for inhibition at 10 µM: measured at a concentration of 10 μM of compound, read-out: FLIPR hOx2R % inhibition
T1 construct: expressed in transfected cells
T1 sequence (O43614 1-444): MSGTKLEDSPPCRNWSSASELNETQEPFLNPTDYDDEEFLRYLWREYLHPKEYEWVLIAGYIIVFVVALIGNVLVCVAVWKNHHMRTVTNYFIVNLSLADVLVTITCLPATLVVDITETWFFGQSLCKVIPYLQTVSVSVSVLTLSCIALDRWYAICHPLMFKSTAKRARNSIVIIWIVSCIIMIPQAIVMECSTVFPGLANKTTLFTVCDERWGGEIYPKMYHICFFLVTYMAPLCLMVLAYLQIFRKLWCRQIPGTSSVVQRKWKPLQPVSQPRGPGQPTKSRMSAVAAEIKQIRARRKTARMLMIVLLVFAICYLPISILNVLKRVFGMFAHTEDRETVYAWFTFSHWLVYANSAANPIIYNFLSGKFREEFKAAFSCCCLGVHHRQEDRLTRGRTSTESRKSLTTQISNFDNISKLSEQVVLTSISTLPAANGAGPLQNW

human orexin 1 receptor = molecular target: T2, human orexin 1 receptor (Homo sapiens, UniProt O43613); test: Calcium accumulation in cells (FLIPR), antagonism of orexin A, human orexin 1 receptor; assay type: cell-based; details: for Ki: calcium accumulation, antagonism of orexin A, Cheng-Prusoff corrected, read-out: FLIPR hOx1R Ki; for inhibition at 10 µM: measured at a concentration of 10 μM of compound, read-out: FLIPR hOx1R % inhibition
T2 construct: expressed in transfected cells
T2 sequence (O43613 1-425): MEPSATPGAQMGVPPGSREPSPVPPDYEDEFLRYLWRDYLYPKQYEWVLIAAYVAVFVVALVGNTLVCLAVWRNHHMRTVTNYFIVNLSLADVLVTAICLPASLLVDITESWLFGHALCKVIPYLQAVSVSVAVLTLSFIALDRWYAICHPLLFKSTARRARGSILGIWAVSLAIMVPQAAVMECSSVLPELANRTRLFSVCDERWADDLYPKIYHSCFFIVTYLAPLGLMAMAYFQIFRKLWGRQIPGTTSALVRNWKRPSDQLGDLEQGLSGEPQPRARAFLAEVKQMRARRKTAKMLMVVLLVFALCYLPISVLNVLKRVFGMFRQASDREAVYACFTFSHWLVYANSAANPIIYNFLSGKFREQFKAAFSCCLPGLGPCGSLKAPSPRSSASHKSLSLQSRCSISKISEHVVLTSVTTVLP

Row | Structure (SMILES) | Ki (human orexin 2 receptor) | Ki (human orexin 1 receptor) | inhibition at 10 µM (human orexin 1 receptor) | inhibition at 10 µM (human orexin 2 receptor)
1 | O=C1N(Cc2c[nH]c3ccccc23)CCC12CCN(c1ncc3cc(F)ccc3n1)C2 (centres unmarked) [Example 5.16, 2-((1H-Indol-3-yl)methyl)-7-(6-fluoroquinazolin-2-yl)-2,7-diazaspiro[4.4]nonan-1-one] | 509 nM | 1120 nM | – | –
2 | O=C1N(Cc2c[nH]c3ccccc23)CCC12CCN(c1cc(C(F)(F)F)ncn1)C2 (centres unmarked) [Example 5.17, 2-((1H-Indol-3-yl)methyl)-7-(6-(trifluoromethyl)pyrimidin-4-yl)-2,7-diazaspiro[4.4]nonan-1-one] | 1790 nM | – | 49% | –
3 | O=C1N(Cc2c[nH]c3ccccc23)CCC12CCN(c1nccc(-n3ccnc3)n1)C2 (centres unmarked) [Example 5.18, 7-(4-(1H-imidazol-1-yl)pyrimidin-2-yl)-2-((1H-indol-3-yl)methyl)-2,7-diazaspiro[4.4]nonan-1-one] | 1240 nM | 1890 nM | – | –
4 | O=C1N(Cc2c[nH]c3ccccc23)CCC12CCN(c1ccnc(-n3ccnc3)n1)C2 (centres unmarked) [Example 5.19, 7-(2-(1H-imidazol-1-yl)pyrimidin-4-yl)-2-((1H-indol-3-yl)methyl)-2,7-diazaspiro[4.4]nonan-1-one] | 665 nM | 1190 nM | – | –
5 | O=C1N(Cc2c[nH]c3ccccc23)CCC12CCN(c1ccc(-n3ccnc3)nn1)C2 (centres unmarked) [Example 5.20, 7-(6-(1H-imidazol-1-yl)pyridazin-3-yl)-2-((1H-indol-3-yl)methyl)-2,7-diazaspiro[4.4]nonan-1-one] | – | – | 34% | 33%
6 | COc1cc(N2CCC3(CCN(Cc4c[nH]c5ccccc45)C3=O)C2)nc(C2CC2)n1 (centres unmarked) [Example 5.21, 2-((1H-indol-3-yl)methyl)-7-(2-cyclopropyl-6-methoxypyrimidin-4-yl)-2,7-diazaspiro[4.4]nonan-1-one] | 370 nM | 1300 nM | – | –
7 | Cn1ccnc1-c1ccnc(N2CCC3(CCN(Cc4c[nH]c5ccccc45)C3=O)C2)n1 (centres unmarked) [Example 5.22, 2-((1H-indol-3-yl)methyl)-7-(4-(1-methyl-1H-imidazol-2-yl)pyrimidin-2-yl)-2,7-diazaspiro[4.4]nonan-1-one] | 489 nM | 923 nM | – | –
8 | Cc1cnc(N2CCC3(CCN(Cc4c[nH]c5ccccc45)C3=O)C2)s1 (centres unmarked) [Example 5.23, 2-((1H-indol-3-yl)methyl)-7-(5-methylthiazol-2-yl)-2,7-diazaspiro[4.4]nonan-1-one] | 645 nM | – | 67% | –
9 | O=C1N(Cc2c[nH]c3ccccc23)CCC12CCN(c1cc3c(nn1)CCOC3)C2 (centres unmarked) [Example 5.24, 2-((1H-indol-3-yl)methyl)-7-(7,8-dihydro-5H-pyrano[4,3-c]pyridazin-3-yl)-2,7-diazaspiro[4.4]nonan-1-one] | – | – | 25% | 54%
10 | Cc1cc(N2CCOCC2)nc(N2CCC3(CCN(Cc4c[nH]c5ccccc45)C3=O)C2)n1 (centres unmarked) [Example 5.25, 2-((1H-indol-3-yl)methyl)-7-(4-methyl-6-morpholinopyrimidin-2-yl)-2,7-diazaspiro[4.4]nonan-1-one] | – | – | 71% | 66%
11 | Cc1nc(N2CCOCC2)cc(N2CCC3(CCN(Cc4c[nH]c5ccccc45)C3=O)C2)n1 (centres unmarked) [Example 5.26, 2-((1H-indol-3-yl)methyl)-7-(2-methyl-6-morpholinopyrimidin-4-yl)-2,7-diazaspiro[4.4]nonan-1-one] | – | – | 37% | 47%
12 | Cc1cccc(N2CCC3(CCN(Cc4c[nH]c5ccccc45)C3=O)C2)n1 (centres unmarked) [Example 5.27, 2-((1H-indol-3-yl)methyl)-7-(6-methylpyridin-2-yl)-2,7-diazaspiro[4.4]nonan-1-one] | 298 nM | 2390 nM | – | –
13 | Cc1ccnc(N2CCC3(CCN(Cc4c[nH]c5ccccc45)C3=O)C2)c1 (centres unmarked) [Example 5.28, 2-((1H-indol-3-yl)methyl)-7-(4-methylpyridin-2-yl)-2,7-diazaspiro[4.4]nonan-1-one] | 182 nM | – | 34% | –
14 | Cc1cc(C)nc(N2CCC3(CCN(Cc4c[nH]c5ccccc45)C3=O)C2)c1 (centres unmarked) [Example 5.29, 2-((1H-indol-3-yl)methyl)-7-(4,6-dimethylpyridin-2-yl)-2,7-diazaspiro[4.4]nonan-1-one] | 114 nM | 1490 nM | – | –
15 | COc1ccnc(N2CCC3(CCN(Cc4c[nH]c5ccccc45)C3=O)C2)c1 (centres unmarked) [Example 5.30, 2-((1H-indol-3-yl)methyl)-7-(4-methoxypyridin-2-yl)-2,7-diazaspiro[4.4]nonan-1-one] | 193 nM | 4350 nM | – | –
16 | Cc1cc(N2CCC3(CCN(Cc4c[nH]c5ccccc45)C3=O)C2)nc(C)n1 (centres unmarked) [Example 5.31, 2-((1H-indol-3-yl)methyl)-7-(2,6-dimethylpyrimidin-4-yl)-2,7-diazaspiro[4.4]nonan-1-one] | – | – | < 10% | 24%
17 | Cn1ccc2ccnc(N3CCC4(CCN(Cc5c[nH]c6ccccc56)C4=O)C3)c21 (centres unmarked) [Example 5.32, 2-((1H-indol-3-yl)methyl)-7-(1-methyl-1H-pyrrolo[2,3-c]pyridin-7-yl)-2,7-diazaspiro[4.4]nonan-1-one] | 2290 nM | 4470 nM | – | –
18 | COc1cc(N2CCC3(CCN(Cc4c[nH]c5ccccc45)C3=O)C2)nc2ccnn12 (centres unmarked) [Example 5.33, 2-((1H-indol-3-yl)methyl)-7-(7-methoxypyrazolo[1,5-a]pyrimidin-5-yl)-2,7-diazaspiro[4.4]nonan-1-one] | – | – | < 10% | < 10%
19 | Cc1noc(-c2ccnc(N3CCC4(CCN(Cc5c[nH]c6ccccc56)C4=O)C3)c2)n1 (centres unmarked) [Example 5.34, 2-((1H-indol-3-yl)methyl)-7-(4-(3-methyl-1,2,4-oxadiazol-5-yl)pyridin-2-yl)-2,7-diazaspiro[4.4]nonan-1-one] | 1470 nM | 2150 nM | – | –
20 | O=C1N(Cc2c[nH]c3ccccc23)CCC12CCN(c1cc(N3CCCC3)ncn1)C2 (centres unmarked) [Example 5.35, 2-((1H-indol-3-yl)methyl)-7-(6-(pyrrolidin-1-yl)pyrimidin-4-yl)-2,7-diazaspiro[4.4]nonan-1-one] | 2720 nM | 1770 nM | – | –
21 | COc1nc(C)cc(N2CCC3(CCN(Cc4c[nH]c5ccccc45)C3=O)C2)n1 (centres unmarked) [Example 5.36, 2-((1H-indol-3-yl)methyl)-7-(2-methoxy-6-methylpyrimidin-4-yl)-2,7-diazaspiro[4.4]nonan-1-one] | 927 nM | – | 18% | –
22 | Cc1csc(N2CCC3(CCN(Cc4c[nH]c5ccccc45)C3=O)C2)n1 (centres unmarked) [Example 5.37, 2-((1H-indol-3-yl)methyl)-7-(4-methylthiazol-2-yl)-2,7-diazaspiro[4.4]nonan-1-one] | 1410 nM | 3590 nM | – | –
23 | COc1cc(N2CCC3(CCN(Cc4c[nH]c5ccccc45)C3=O)C2)n2nccc2n1 (centres unmarked) [Example 5.38, 2-((1H-indol-3-yl)methyl)-7-(5-methoxypyrazolo[1,5-a]pyrimidin-7-yl)-2,7-diazaspiro[4.4]nonan-1-one] | 1020 nM | 2410 nM | – | –
24 | CC(C)c1ccnc(N2CCC3(CCN(Cc4c[nH]c5ccccc45)C3=O)C2)n1 (centres unmarked) [Example 5.39, 2-((1H-indol-3-yl)methyl)-7-(4-isopropylpyrimidin-2-yl)-2,7-diazaspiro[4.4]nonan-1-one] | 283 nM | 1210 nM | – | –
25 | Cc1cn2ccnc(N3CCC4(CCN(Cc5c[nH]c6ccccc56)C4=O)C3)c2n1 (centres unmarked) [Example 5.40, 2-((1H-indol-3-yl)methyl)-7-(2-methylimidazo[1,2-a]pyrazin-8-yl)-2,7-diazaspiro[4.4]nonan-1-one] | 188 nM | 1730 nM | – | –
